The values below come from patent US20260258004A1, “CRYSTALLINE FORMS OF (6S)-5-[4'-FLUORO-2-(TRIFLUOROMETHYL)BIPHENYL-4-YL]-6-METHYL-3,6- DIHYDRO-2H-l,3,4-OXADIAZIN-2-ONE” (Bayer Aktiengesellschaft, priority 2022, published 2026).

What all share (assay type): physicochemical
Data set [1] in a line: Determination of bulk density during shear tests. The following applies: during shear test. As for the experimental part: Because of the normal stress of 1.5 kPa applied on the top of the lid during the shear test the lid lowers into the shear cell and compresses the powder.
During the shear tests this lowering of the lid is measured and recorded. Since the volume of the bottom ring is known and weight of the sample measured before the beginning of the shear test the bulk density of the sample during the shear test is calculated
[formula] • with: • ρb,shear: Bulk density under shear • mges: total mass of shear cell including powder sample (w/o lid) • mcell: net mass of shear cell (w/o powder sample, w/o lid) • hc: height of the bottom ring • hl: lowering of lid • Acell: bottom area of shear cell
The calculation of the bulk density is done automatically with the evaluation software provided together with the shear tester.

The nature of data set [2]: Hygroscopicity classification applying the Pharmacopeia rules. From the text:
The shear cell was fully filled with a sample of powder of the compound of formula (I) thereby preventing condensing the powder. Both samples, sample 1 and sample 2, were classified as non-hydroscopic applying the Pharmacopeia rules.

A short description of data set [3]: Thermodynamic stability of the polymorphic forms. As to conditions: between 0° C. and 80° C.
A short description of data set [4]: Schulze ring shear test (flow properties). The following applies: normal load 1.5 kPa, 24° C., humidity 30%, no storage time. From the text:
The device used is the Schulze ring shear tester RST-XS.s for which a general technical product information is available on http://www.dietmar-schulze.de. We were using the shear cell XS-SV3. A statement referring to the testing procedure from the technical product information for RST-XS.s reads as follows: • “Testing procedure: The powder sample is contained in an annular shear cell “(FIG. 19B). • “A vertical load ? N] is applied through a thin loading rod on the annular lid. To shear the sample, the shear cell rotates relative to the lid (direction ω), and the torque necessary for shearing is determined from forces and F1 and F2 acting in a tie rod and a push rod. Following a well-defined procedure, which is executed computer-controlled, the flow properties are measured. […]
During the shear test, the bottom ring slowly rotated in the direction of the arrow with the low rotational speed ω of 2 rpm maximum. Rotation of the lid was prevented by the tension rods; the tensile forces F1 and F2 necessary to achieve this are measured by the load cells. From the normal and shear forces respectively stresses, the so-called yield locus was determined, which describes the flow behavior of a bulk solid. […]
The experimental data obtained were analyzed following the method described in Schulze, D. (2008). […] FIG. 21 provides the flow factor of both samples as calculated on basis of the ring shear experiment. […]

Regarding `C[C@@H]1OC(=O)NN=C1c1ccc(-c2ccc(F)cc2)c(C(F)(F)F)c1` [polymorph C, (6S)-5-[4′-Fluoro-2-(trifluoromethyl)biphenyl-4-yl]-6-methyl-3,6-dihydro-2H-1,3,4-oxadiazin-2-one], in data set [1], the “bulk density compared with sample 1 (FIG. 22)” value is “significantly higher”. The bulk density entry in data set [1] (normal stress 1.5 kPa) is recorded as “about 550 kg/m^3”. For the same molecule, in data set [2], the hygroscopicity classification entry is on record as “non-hydroscopic”. Further, in data set [3], the thermodynamic stability result is recorded as “thermodynamically stable form”. Also, the “flow behaviour (flow factor ffc)” value in data set [4] is on record as “flowing a bit better than polymorph A”.
